Results taken from US20260317320A1, “C5AR1 ANTAGONISTS AND USES THEREOF” (Vanqua Bio, Inc., priority 2022, published 2026).
pIC50: −log10 of the molar value. Read-outs that look alike come from different tables or passages of the source.

Columns and labels:
[1] = target: T1, complement C5a receptor 1 (C5aR1) (Homo sapiens, UniProt P21730); assay: β-arrestin recruitment via C5aR1 activation in live CHO-K1 cells (PathHunter), agonist mode; type: cell-based
T1 construct: β-galactosidase fragment (PathHunter enzyme complementation); host or cells: CHO-K1 (PathHunter CHO-K1 C5aR1 β-arrestin cell line)
T1 sequence (P21730 1-350): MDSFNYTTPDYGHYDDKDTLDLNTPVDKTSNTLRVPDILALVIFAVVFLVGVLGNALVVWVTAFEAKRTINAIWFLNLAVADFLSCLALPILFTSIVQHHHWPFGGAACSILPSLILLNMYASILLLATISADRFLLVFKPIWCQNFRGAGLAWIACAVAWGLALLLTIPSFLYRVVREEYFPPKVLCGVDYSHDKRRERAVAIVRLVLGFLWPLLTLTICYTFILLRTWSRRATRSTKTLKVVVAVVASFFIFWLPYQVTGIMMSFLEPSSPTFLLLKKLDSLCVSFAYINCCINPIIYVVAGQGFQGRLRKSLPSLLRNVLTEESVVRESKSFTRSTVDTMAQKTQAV
Outline: (§1)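 β-arrestin recruitment to C5aR1 in CHO-K1 cells is detected by enzyme-fragment complementation. Antagonism is measured against recombinant hC5a at its EC90; agonism is measured with compound alone. Potencies are grouped into IC50 categories.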

[2] = target: T1, complement C5a receptor 1 (C5aR1); assay: β-arrestin recruitment via C5aR1 activation in live CHO-K1 cells (PathHunter), antagonist mode; type: cell-based; conditions: antagonist mode; recombinant hC5a (EC90) as competing natural agonist; live CHO-K1 cells; read-out: [Antagonist] B-arrestin2 recruitment: Average IC50
Outline: as §1

Row | [Agonist] B-arrestin2 recruitment: Average EC50 (nM) ([1]; at 10 μM) | pIC50 [2] | [Agonist] B-arrestin2 recruitment: Average EC50 (nM) [1] | Structure (SMILES)
1 | Non-Active at 10 μM | > 6.30 |  | Cc1cnc2cc([C@H]3CC[C@@H](c4c(C)cccc4F)C3)c(=O)n(Cc3ncccc3C(F)(F)F)c2n1 [171A, 7-((1S,3R)-3-(2-Fluoro-6-methylphenyl)cyclopentyl)-3-methyl-5-((3-(trifluoromethyl)pyridin-2-yl)methyl)pyrido[2,3-b]pyrazin-6(5H)-one]
2 | Non-Active at 10 μM | > 6.30 |  | Cc1cnc2cc([C@@H]3CC[C@H](c4c(C)cccc4F)C3)c(=O)n(Cc3ncccc3C(F)(F)F)c2n1 [171B, 7-((1R,3S)-3-(2-Fluoro-6-methylphenyl)cyclopentyl)-3-methyl-5-((3-(trifluoromethyl)pyridin-2-yl)methyl)pyrido[2,3-b]pyrazin-6(5H)-one]
3 |  | > 6.30 | Non-Active | Cc1cnc2cc([C@H]3CC[C@H](c4c(C)cccc4F)C3)c(=O)n(Cc3ncccc3C(F)(F)F)c2n1 [171C, 7-((1S,3S)-3-(2-Fluoro-6-methylphenyl)cyclopentyl)-3-methyl-5-((3-(trifluoromethyl)pyridin-2-yl)methyl)pyrido[2,3-b]pyrazin-6(5H)-one]
4 | Non-Active at 10 μM | 5.30 to 6.30 |  | Cc1cnc2cc([C@@H]3CC[C@@H](c4c(C)cccc4F)C3)c(=O)n(Cc3ncccc3C(F)(F)F)c2n1 [171D, 7-((1R,3R)-3-(2-Fluoro-6-methylphenyl)cyclopentyl)-3-methyl-5-((3-(trifluoromethyl)pyridin-2-yl)methyl)pyrido[2,3-b]pyrazin-6(5H)-one]
5 | Non-Active at 10 μM | 5.30 to 6.30 |  | Cc1cnc2cc([C@H]3CC[C@@H](c4c(C)cccc4F)C3)c(=O)n(Cc3nccnc3C)c2n1 [172A, 7-((1S,3R)-3-(2-Fluoro-6-methylphenyl)cyclopentyl)-3-methyl-5-((3-methylpyrazin-2-yl)methyl)pyrido[2,3-b]pyrazin-6(5H)-one]
6 | Non-Active at 10 μM | 5.30 to 6.30 |  | Cc1cnc2cc([C@@H]3CC[C@H](c4c(C)cccc4F)C3)c(=O)n(Cc3nccnc3C)c2n1 [172B, 7-((1R,3S)-3-(2-Fluoro-6-methylphenyl)cyclopentyl)-3-methyl-5-((3-methylpyrazin-2-yl)methyl)pyrido[2,3-b]pyrazin-6(5H)-one]
7 | Non-Active at 10 μM | > 6.30 |  | Cc1cnc2cc([C@H]3CC[C@H](c4c(C)cccc4F)C3)c(=O)n(Cc3nccnc3C)c2n1 [172C, 7-((1S,3S)-3-(2-Fluoro-6-methylphenyl)cyclopentyl)-3-methyl-5-((3-methylpyrazin-2-yl)methyl)pyrido[2,3-b]pyrazin-6(5H)-one]
8 | Non-Active at 10 μM | 4.00 to 5.30 |  | Cc1cnc2cc([C@@H]3CC[C@@H](c4c(C)cccc4F)C3)c(=O)n(Cc3nccnc3C)c2n1 [172D, 7-((1R,3R)-3-(2-Fluoro-6-methylphenyl)cyclopentyl)-3-methyl-5-((3-methylpyrazin-2-yl)methyl)pyrido[2,3-b]pyrazin-6(5H)-one]
9 | Non-Active at 10 μM | 4.00 to 5.30 |  | Cc1cnc2cc([C@H]3CC[C@H](c4c(C)cccc4F)CC3)c(=O)n([C@H]3CCC(F)(F)c4nccnc43)c2n1 [174A, 5-((S)-8,8-Difluoro-5,6,7,8-tetrahydroquinoxalin-5-yl)-7-((1r,4S)-4-(2-fluoro-6-methylphenyl)cyclohexyl)-3-methylpyrido[2,3-b]pyrazin-6(5H)-one]
10 | Non-Active at 10 μM | 5.30 to 6.30 |  | Cc1cnc2cc([C@H]3CC[C@H](c4c(C)cccc4F)CC3)c(=O)n([C@@H]3CCC(F)(F)c4nccnc43)c2n1 [174B, 5-((R)-8,8-Difluoro-5,6,7,8-tetrahydroquinoxalin-5-yl)-7-((1r,4R)-4-(2-fluoro-6-methylphenyl)cyclohexyl)-3-methylpyrido[2,3-b]pyrazin-6(5H)-one]
11 |  | > 6.30 | Non-Active | Cc1cnc2cc([C@H]3CC[C@@H](c4c(C)cccc4F)C3)c(=O)n(Cc3ncccc3OC(F)F)c2n1 [175A, 5-((3-(Difluoromethoxy)pyridin-2-yl)methyl)-7-((1S,3R)-3-(2-fluoro-6-methylphenyl)cyclopentyl)-3-methylpyrido[2,3-b]pyrazin-6(5H)-one]
12 | Non-Active at 10 μM | > 6.30 |  | Cc1cnc2cc([C@@H]3CC[C@H](c4c(C)cccc4F)C3)c(=O)n(Cc3ncccc3OC(F)F)c2n1 [175B, 5-((3-(Difluoromethoxy)pyridin-2-yl)methyl)-7-((1R,3S)-3-(2-fluoro-6-methylphenyl)cyclopentyl)-3-methylpyrido[2,3-b]pyrazin-6(5H)-one]
13 |  | > 6.30 | Non-Active | Cc1cnc2cc([C@H]3CC[C@H](c4c(C)cccc4F)C3)c(=O)n(Cc3ncccc3OC(F)F)c2n1 [175C, 5-((3-(Difluoromethoxy)pyridin-2-yl)methyl)-7-((1S,3S)-3-(2-fluoro-6-methylphenyl)cyclopentyl)-3-methylpyrido[2,3-b]pyrazin-6(5H)-one]
14 | Non-Active at 10 μM | 5.30 to 6.30 |  | Cc1cnc2cc([C@@H]3CC[C@@H](c4c(C)cccc4F)C3)c(=O)n(Cc3ncccc3OC(F)F)c2n1 [175D, 5-((3-(Difluoromethoxy)pyridin-2-yl)methyl)-7-((1R,3R)-3-(2-fluoro-6-methylphenyl)cyclopentyl)-3-methylpyrido[2,3-b]pyrazin-6(5H)-one]
15 | Non-Active at 10 μM | > 6.30 |  | Cc1cnc2cc([C@H]3CC[C@@H](c4c(C)cccc4F)C3)c(=O)n(Cc3ncccc3C(F)F)c2n1 [187A, 5-((3-(Difluoromethyl)pyridin-2-yl)methyl)-7-((1S,3R)-3-(2-fluoro-6-methylphenyl)cyclopentyl)-3-methylpyrido[2,3-b]pyrazin-6(5H)-one]
16 | Non-Active at 10 μM | > 6.30 |  | Cc1cnc2cc([C@H]3CC[C@H](c4c(C)cccc4F)C3)c(=O)n(Cc3ncccc3C(F)F)c2n1 [187B, 5-((3-(Difluoromethyl)pyridin-2-yl)methyl)-7-((1S,3S)-3-(2-fluoro-6-methylphenyl)cyclopentyl)-3-methylpyrido[2,3-b]pyrazin-6(5H)-one]
17 | Non-Active at 10 μM | > 6.30 |  | Cc1cnc2cc([C@@H]3CC[C@H](c4c(C)cccc4F)C3)c(=O)n(Cc3ncccc3C(F)F)c2n1 [187C, 5-((3-(Difluoromethyl)pyridin-2-yl)methyl)-7-((1R,3S)-3-(2-fluoro-6-methylphenyl)cyclopentyl)-3-methylpyrido[2,3-b]pyrazin-6(5H)-one]
18 | Non-Active at 10 μM | 5.30 to 6.30 |  | Cc1cnc2cc([C@@H]3CC[C@@H](c4c(C)cccc4F)C3)c(=O)n(Cc3ncccc3C(F)F)c2n1 [187D, 5-((3-(Difluoromethyl)pyridin-2-yl)methyl)-7-((1R,3R)-3-(2-fluoro-6-methylphenyl)cyclopentyl)-3-methylpyrido[2,3-b]pyrazin-6(5H)-one]
19 | Non-Active at 10 μM | > 6.30 |  | Cc1cnc2cc([C@H]3CC[C@@H](c4c(C)cccc4F)C3)c(=O)n(Cc3nccnc3C(F)(F)F)c2n1 [197A, 7-((1S,3R)-3-(2-Fluoro-6-methylphenyl)cyclopentyl)-3-methyl-5-((3-(trifluoromethyl)pyrazin-2-yl)methyl)pyrido[2,3-b]pyrazin-6(5H)-one]
20 | Non-Active at 10 μM | 5.30 to 6.30 |  | Cc1cnc2cc([C@H]3CC[C@H](c4c(C)cccc4F)C3)c(=O)n(Cc3nccnc3C(F)(F)F)c2n1 [197B, 7-((1S,3S)-3-(2-Fluoro-6-methylphenyl)cyclopentyl)-3-methyl-5-((3-(trifluoromethyl)pyrazin-2-yl)methyl)pyrido[2,3-b]pyrazin-6(5H)-one]
21 | Non-Active at 10 μM | 4.00 to 5.30 |  | Cc1cnc2cc([C@@H]3CC[C@H](c4c(C)cccc4F)C3)c(=O)n(Cc3nccnc3C(F)(F)F)c2n1 [197C, 7-((1R,3S)-3-(2-Fluoro-6-methylphenyl)cyclopentyl)-3-methyl-5-((3-(trifluoromethyl)pyrazin-2-yl)methyl)pyrido[2,3-b]pyrazin-6(5H)-one]
22 |  | > 6.30 | Non-Active | Cc1cnc2cc([C@@H]3CC[C@@H](c4c(C)cccc4F)C3)c(=O)n(Cc3nccnc3C(F)(F)F)c2n1 [197D, 7-((1R,3R)-3-(2-Fluoro-6-methylphenyl)cyclopentyl)-3-methyl-5-((3-(trifluoromethyl)pyrazin-2-yl)methyl)pyrido[2,3-b]pyrazin-6(5H)-one]
23 | Non-Active at 10 μM | 5.30 to 6.30 |  | Cc1cccc(F)c1[C@H]1CC[C@@H](c2cc3nccnc3n(Cc3ncccc3C(F)(F)F)c2=O)C1 [200C, 7-((1R,3S)-3-(2-Fluoro-6-methylphenyl)cyclopentyl)-5-((3-(trifluoromethyl)pyridin-2-yl)methyl)pyrido[2,3-b]pyrazin-6(5H)-one]
